# No end group written: not given here.
# Molecular target: T1, GPR7 (Homo sapiens, UniProt P48145)
# T1 sequence (P48145 1-328): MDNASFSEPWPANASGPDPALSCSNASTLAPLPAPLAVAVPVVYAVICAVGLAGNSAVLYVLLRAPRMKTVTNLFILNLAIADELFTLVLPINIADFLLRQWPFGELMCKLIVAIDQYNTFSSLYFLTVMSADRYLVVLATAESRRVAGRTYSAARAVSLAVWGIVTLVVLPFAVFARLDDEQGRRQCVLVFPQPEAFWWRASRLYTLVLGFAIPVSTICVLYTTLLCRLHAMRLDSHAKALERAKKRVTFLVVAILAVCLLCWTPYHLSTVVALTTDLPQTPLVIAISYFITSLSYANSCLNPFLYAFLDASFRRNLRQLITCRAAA
# Test: Test on binding inhibition of various peptides against human GPR7-expressed CHO cell membrane fraction
# Design: The synthetic primers were constructed so as to amplify the gene in the region to be translated to its receptor protein; expressed in transfected cells; host or cells: CHO cells, membrane fraction
# Conditions: iodine-labeled hGPR7L-23; human GPR7-expressed CHO cell membrane fraction 1 μg/well; room temperature 1.5 hour
# Method: A mixture of 20 μl of hGPR7L-23 (SEQ ID NO:1) (0.1 mM or 1 mM), 20 μl of lactoperoxidase (Sigma; prepared using 10 μg/ml and 0.1M HEPES-NaOH pH7.0), 20 μl of Idoine-125 (manufactured by Amersham, MS-30, 74 MBq), 20 μl of 0.005% hydrogen peroxide (manufactured by Wako Pure Chemical Industries, Ltd.) was allowed to stand at room temperature for 20 to 30 minutes. Then, 600 μl of 0.1% TFA was added to the mixture. The mixture was applied to reverse phase HPLC for separation and the peaks of the two'labeled products were fractionated in a tube charged with 1 mL of DMSO. Immediately, the fraction was stored on ice and an aliquot was provided for measurement of the radioactivity with a γ-counter. The remaining preparation was dispensed and stored at −30° C.
# Human GPR7-expressed CHO cells were cultured in a flask. The flask was washed with 5 mM EDTA/PBS to strip the cells off. The cells were stripped off with 5 mM EDTA/PBS and centrifuged for recovery. The recovered cells were suspended in 25 mL of a buffer for preparing membrane fraction (50 mM Tris-HCl, pH7.5, 5 mM EDTA, 0.1% bovine serum albumin (manufactured by Sigma), 0.5 mM PMSF (manufactured by Wako Pure Chemical Industries, Ltd.), 20 μg/mL leupeptin (manufactured by Peptide Research Institute), 0.1 μg/mL pepstatin A (manufactured by Peptide Research Institute) and 4 μg/mL E-64 (manufactured by Peptide Research Institute)), followed by homogenization on ice using a polytron (12,000 rpm, 15 seconds×3 times). The homogenate was centrifuged at 4° C. under 1,000 g for 10 minutes with a high speed cooling centrifuge to recover the supernatant. […] The pellets were recovered and suspended in a small quantity of the buffer for preparing membrane fractions. […]
# Using the assay buffer, the human GPR7-expressed CHO cell membrane fraction was diluted in a final concentration of 1 μg/well and iodine-labeled hGPR7L-23 (SEQ ID NO:1) was diluted in a final concentration of […]. […] After 50 μl of a liquid scintillator was dispensed thereto, the radioactivity was counted on a Top Count (Packard) and the data was analyzed in triplet (FIG. 33). […]
sequence,measurement,value
WYKPTAGQGYYSVGRAAGLLSGFHRSPYA [Trp1-bovine GPR7L(29)],IC50,0.31 nM
